Earlier results as cited in US9250230B2, “Using induced pluripotent stem cells for screening anti-neoplastic agents” (priority 2011, dated 2016).

Key:
[1] = test system: chemical reprogramming to CiPSCs; details: TTNPB added to small-molecule reprogramming
iPS reprogramming = iPS reprogramming of somatic cells

Structure (SMILES)	enhancement of reprogramming efficiency of chemical reprogramming [1]	effect on reprogramming efficiency (iPS reprogramming)
C/C(=C\c1ccc(C(=O)O)cc1)c1ccc2c(c1)C(C)(C)CCC2(C)C [TTNPB]	up to 40 fold	
O=CC[C@@H](O)[C@H](O)[C@H](O)CO [2-DG, 2-deoxy-D-glucose]		inhibited the reprogramming efficiency
O=C(CO)[C@@H](O)[C@H](O)[C@H](O)COP(=O)(O)O [F6P, D-fructose-6-phosphate]		increased reprogramming efficiency
